In patent US9526720B2, “Modulators of hepatic lipoprotein metabolism” (The Broad Institute, Inc., priority 2012, dated 2016):

Assays:
LDLR [1] = test: qPCR LDLR expression in HepG2 cells; assay type: cell-based, human; settings: for qPCR LDLR: HepG2 cells; for EC50: Homo sapiens, HepG2, 6 h, read-out: qPCR 6Hr (EC50 uM) LDLR up-regulation
Description: (§1) In the primary screen, HepG2 cells were plated in 384-well plates at 2000 cells per well and incubated for 20 hours with each compound in duplicate at 10 microM concentration. Then RNA was isolated, reverse-transcribed to cDNA, and stored at −80° C. Expression levels of TRIB1 and other target genes, such as SORT1 and PCSK9, were determined by quantitative PCR. Relative gene expression level was normalized to expression of the housekeeping gene, GAPDH. A “hit” was defined as those compounds that caused a greater than 2-fold increase in relative target gene expression when normalized to GAPDH expression, compared to DMSO-treated control. Using these criteria, 130 hits were identified for TRIB1 (0.8% hit rate).
(§2) Further analysis of the expression levels of various proteins in the cholesterol and triglyceride biosynthetic pathways in response to TRIB1 inducer treatment was performed. In particular, transcript levels of additional lipoprotein metabolism pathway proteins SCAP, SREBF1, SREBF2, HMGCR, HMGCS, SCD1, FASN and MTTP were assessed by qPCR, along with TRIB1, LDLR, and PCSK9. The gene expression profile for the same subset of genes was also assessed after treatment with the statin atorvastatin (Lipitor), commonly used in therapy for hypercholesterolemia and other cardiovascular diseases.
(§3) The kinetics of the modulation of TRIB1, LDLR, PCSK9 and MTTP gene expression after treatment by select TRIB1 inducer compounds was monitored by qPCR analysis (FIG. 4). RNA was extracted from cells at various timepoints over 28 hours of treatment (0, 2, 4, 6, 8, 24, 28 hours). Specifically, compounds 12a and 14a induced transcriptional responses over time similar to those produced by berberine, a plant alkaloid used in Chinese medicine. […] Both compound 12a and compound 14a induce TRIB1 and LDLR and repress PCSK9 and MTTP expression with similar kinetics and similar fold change as berberine Importantly, both compounds induce these gene expression changes at much lower concentrations than berberine. […] This increased potency indicates the potential therapeutic efficacy of such compounds for treatment of cardiovascular diseases, particularly hypercholesterolemia and related conditions.

LDLR [2] = test: ELISA of LDLR protein in HepG2 cells; assay type: cell-based, human; settings: for ELISA LDLR: HepG2 cells; for EC50: Homo sapiens, HepG2, 24 h, read-out: ELISA 24 Hr (EC50 uM) LDLR increase
Description: (§4) Additional secondary assays were performed in HepG2 cells to further characterize the cellular response to treatment with select confirmed TRIB1 inducer hits. The results of the ELISA, CTG, and qPCR secondary assays are summarized in Table B. For all secondary assays, the experiments were performed using powders of freshly purified compounds.
(§5) To further characterize the relationship of TRIB1 induction and PCSK9 reduction, ELISAs were performed to measure the levels of secreted ApoB, PCSK9, and LDLR. […] As predicted treatment with TRIB1 inducer hits caused a decrease in ApoB levels detected by ELISA. In parallel effort, 3200 BIOA and NATP compounds were screened for PCSK9 expression inhibitors. Hits were defined as inducing greater than 3-fold downregulation of PCSK9, and 3.8% of the screened compounds were confirmed as hits. […] In further experiments, a strong correlation was confirmed between TRIB1 induction and PCSK9 repression in DOS Collection hits. ELISA analysis confirmed that treatment with TRIB1 inducers reduced the PCSK9 protein levels. LDLR protein levels were also analyzed by ELISA to determine whether compounds that modulate both TRIB1 and PCSK9 had any effect on LDLR protein levels.

ApoB = test: ELISA of secreted ApoB in HepG2 cells; assay type: cell-based, human; parameters: key to ELISA 24 Hr (EC50 uM) ApoB decrease: A: EC50 between 0.0000001 μM≦0.5 μM; B: EC50 between 0.51 μM≦1.0 μM; EC50 between 1.1 μM≦2.0 μM; D: EC50 between 2.1 μM≦5.0 μM; EC50 between 5.1 μM≦10 μM; F: EC50>10 μM; NC: No change; settings: for ELISA ApoB: HepG2 cells
Description: as §4, §5

SREBF2 = test: qPCR SREBF2 transcript level in HepG2 cells; assay type: cell-based, human; parameters: key: A: Increase <2-fold; B: Increase >2-fold; X: Decrease <2-fold; Y: Decrease >2-fold; No significant change
Description: as §1, §2

FASN = test: qPCR FASN transcript level in HepG2 cells; assay type: cell-based; settings: Homo sapiens, 20 h
Description: as §1, §2

PCSK9 [3] = test: ELISA of secreted PCSK9 protein in HepG2 cells; assay type: cell-based, human; settings: for ELISA PCSK9: HepG2 cells; for EC50: Homo sapiens, HepG2, 24 h, read-out: ELISA 24 Hr (EC50 uM) PCSK9 decrease
Description: as §4, §5

SREBF1 = test: qPCR SREBF1 transcript level in HepG2 cells; assay type: cell-based, human; parameters: key: A: Increase <2-fold; B: Increase >2-fold; X: Decrease <2-fold; Y: Decrease >2-fold; No significant change
Description: as §1, §2

HepG2 cells = test: Cell Titer Glo (CTG) cell viability assay; assay type: cell-based, human; parameters: key: A: Increase <2-fold; B: Increase >2-fold; X: Decrease <2-fold; Y: Decrease >2-fold; No significant change; settings: cell viability (ATP)
Description: Cell viability was determined using a Cell Titer Glo (CTG) assay ([…]) after treatment with TRIB1 inducer compounds. In this assay, the number of viable cells in culture is based on quantitation of ATP, which indicates metabolically active cells. Addition of the reagent results in cell lysis and generation of a luminescent signal proportional to the amount of ATP present, which is directly proportional to the number of viable, metabolically active cells present in culture. Most TRIB1 inducer compounds had no significant effect on cell viability.

HMGCS = test: qPCR HMGCS transcript level in HepG2 cells; assay type: cell-based; settings: Homo sapiens, 20 h
Description: as §1, §2

PCSK9 [4] = test: qPCR PCSK9 expression in HepG2 cells; assay type: cell-based, human; settings: for fold induction at 10 µM / EC50: Homo sapiens; for fold induction at 10 µM: 20 h, HepG2 cells; for EC50: HepG2, 24 h, read-out: qPCR 24 Hr (EC50 uM) PCSK9 down-regulation
Description: as §1, §2, §3

SCAP = test: qPCR SCAP transcript level in HepG2 cells; assay type: cell-based, human; parameters: key: A: Increase <2-fold; B: Increase >2-fold; X: Decrease <2-fold; Y: Decrease >2-fold; No significant change
Description: as §1, §2

TRIB1 [5] = test: qPCR TRIB1 expression in HepG2 cells; assay type: cell-based, human; parameters: key to qPCR TRIB1: A: Increase <2-fold; B: Increase >2-fold; X: Decrease <2-fold; Y: Decrease >2-fold; No significant change; settings: for fold induction at 10 µM: Homo sapiens, 20 h
Description: as §1, §2, §3

HMGCR = test: qPCR HMGCR transcript level in HepG2 cells; assay type: cell-based, human; parameters: key: A: Increase <2-fold; B: Increase >2-fold; X: Decrease <2-fold; Y: Decrease >2-fold; No significant change
Description: as §1, §2

SCD1 = test: qPCR SCD1 transcript level in HepG2 cells; assay type: cell-based; settings: Homo sapiens, 20 h
Description: as §1, §2

TRIB1 [6] = test: qPCR TRIB1 expression in HepG2 cells; assay type: cell-based; settings: Homo sapiens, HepG2, 6 h; read-out: qPCR 6Hr (EC50 uM) TRIB1 up-regulation

Row | EC50 (LDLR [1]) | EC50 (LDLR [2]) | EC50 (TRIB1 [6]) | EC50 (PCSK9 [3]) | SMILES | qPCR LDLR (LDLR [1]) | ELISA LDLR (LDLR [2]) | ELISA ApoB (ApoB) | qPCR SREBF2 (SREBF2) | fold induction at 10 µM (FASN) | ELISA PCSK9 (PCSK9 [3]) | qPCR SREBF1 (SREBF1) | CTG (HepG2 cells) | fold induction at 10 µM (HMGCS) | fold induction at 10 µM (PCSK9 [4]) | qPCR SCAP (SCAP) | fold induction at 10 µM (TRIB1 [5]; HepG2 cells) | qPCR HMGCR (HMGCR) | fold induction at 10 µM (SCD1) | further results
1 |  |  |  |  | O=C(C[C@H]1CC[C@@H]2[C@H](COC[C@H](O)CN2Cc2ccc(Oc3ccccc3)cc2)O1)N1CCc2ccccc2C1 [Compound 9a] | B (Increase >2-fold) | B (Increase >2-fold) | Y (Decrease >2-fold) | B (Increase >2-fold) | > 2 | Y (Decrease >2-fold) | N | X (Decrease <2-fold) | > 2 | > 2 | N | > 2 | Y (Decrease >2-fold) | > 2 | 
2 |  |  |  |  | O=C(C[C@@H]1CC[C@H]2[C@@H](COC[C@H](O)CN2Cc2ccc(Oc3ccccc3)cc2)O1)N1CCc2ccccc2C1 [Compound 6a] | A (Increase <2-fold) | A (Increase <2-fold) | Y (Decrease >2-fold) | N | > 2 | Y (Decrease >2-fold) | N | N | > 2 | > 2 | N | > 2 | N | > 2 | 
3 |  |  |  |  | CC(C)c1c(C(=O)Nc2ccccc2)c(-c2ccccc2)c(-c2ccc(F)cc2)n1CC[C@@H](O)C[C@@H](O)CC(=O)O [Atorvastatin, atorvastatin, reference compound] | B (Increase >2-fold) | A (Increase <2-fold) | X (Decrease <2-fold) | A (Increase <2-fold) | < 2 | A (Increase <2-fold) | N | N | < 2 | > 2 | N |  | N | < 2 | increase of LDLR mRNA levels (LDLR [1]; time course, HepG2): ~2 fold; increase of PCSK9 mRNA levels (PCSK9 [4]; time course, HepG2): ~2 fold; TRIB1 expression (in words) (TRIB1 [5]; HepG2, qPCR): did not significantly affect; qPCR TRIB1 (TRIB1 [5]; HepG2 cells): N
4 |  |  |  |  | Cc1cc(C(=O)Nc2ccc3c(c2)C(=O)N(C)[C@H]2CC[C@@H](CC(=O)NCc4ccc(-c5ccccc5)cc4)O[C@@H]2CO3)no1 [Compound 3a] | B (Increase >2-fold) | B (Increase >2-fold) | Y (Decrease >2-fold) | B (Increase >2-fold) | > 2 | X (Decrease <2-fold) | N | N | > 2 | > 2 | N | > 2 | Y (Decrease >2-fold) | > 2 | 
5 | 2.1 to 5 µM | 1.1 to 2 µM | 2.1 to 5 µM | 2.1 to 5 µM | CN(C)C(=O)c1ccc(-c2ccc([C@H]3[C@@H](C#N)N(C(=O)C4CCC4)[C@@H]3CO)cc2)cc1 [Compound 22a] |  |  |  |  |  |  |  |  |  |  |  |  |  |  | ELISA 24 Hr (EC50 uM) ApoB decrease (ApoB): NC; EC50 (PCSK9 [4]): 1.1 to 2 µM
6 | 2.1 to 5 µM | 5.1 to 10 µM | 5.1 to 10 µM | 2.1 to 5 µM | N#C[C@@H]1[C@H](c2ccc(-c3cccc(F)c3)cc2)[C@@H](CO)N1C(=O)c1cccnc1 [Compound 24a] |  |  |  |  |  |  |  |  |  |  |  |  |  |  | ELISA 24 Hr (EC50 uM) ApoB decrease (ApoB): NC
7 | 1.1 to 2 µM | 2.1 to 5 µM | 2.1 to 5 µM | 1.1 to 2 µM | CN(C)C(=O)c1ccc(-c2ccc([C@H]3[C@@H](C#N)N(C(=O)C4CCCC4)[C@H]3CO)cc2)cc1 [Compound 19a] |  |  |  |  |  |  |  |  |  |  |  |  |  |  | EC50 (ApoB; Homo sapiens, HepG2, 24 h, read-out: ELISA 24 Hr (EC50 uM) ApoB decrease): 2.1 to 5 µM; EC50 (PCSK9 [4]): 1.1 to 2 µM
